Assay results as given in patent US20250346576A1, “KCNT1 INHIBITORS COMPRISING A PYRAZOLE CORE AND METHODS OF USE” (PRAXIS PRECISION MEDICINES, INC., priority 2022, published 2025).

Columns and labels:
[1] = Kinetic solubility assay (shake flask, HPLC-UV); type: physicochemical; details: aqueous buffer, kinetic from dmso stock, 50 mM pH 7.4 phosphate buffer, room temperature
Description: Kinetic Solubility Assay: The Kinetic solubility assay employed the shake flask method followed by HPLC-UV analysis. The following step-wise procedure is used: • 1) Weigh and dissolve the samples in 100% DMSO as the stock solution of 10 mM. About 10 μL (compound/Media) of stock solution is needed in this assay. • 2) Add the test compounds and controls (10 mM in DMSO, 10 μL/vial) into the 50 mM pH 7.4 phosphate buffer (490 μL/well) placed in a Mini-Uniprep filter. • 3) Vortex the samples of kinetic solubility for 2 minutes. • 4) Incubate and shake the solubility solutions on an orbital shaker with 800 rpm at room temperature for 24 hours. • 5) Centrifuge at 4000 rpm, 20° C. for 10 minutes. • 6) Transfer 400 μL (with or without dilution) of each solubility supernatant into 96-deep well for analysis after the samples will be directly filtered by the syringeless filter device. • 7) Determine the test compound concentration of the filtrate using HPLC-UV. • 8) Inject at least 5 UV standard solutions into HPLC from low to high concentration subsequently and then test the Kinetic solubility supernatant in duplicate. • 9) Use the QC samples to monitor Kinetic solubility determination process.

[2] = Liver microsome metabolic stability assay (NADPH); type: in vitro ADME; details: human liver microsomes, 1.0 μM compound, 0.5 mg/ml protein, 37° C., read-out: CLint (HClint)
Description: Liver Microsome Metabolic Stability Assay (NADPH): • 1) Test compounds were incubated at 37° C. with liver microsomes (pooled from multiple donors) at 1.0 μM in the presence of NADPH (˜1.0 mM) at 0.5 mg/ml microsomal protein. • 2) Positive controls include testosterone (3A4 substrate), propafenone (2D6) and diclofenac (2C9). They are also incubated with microsomes in the presence of NADPH. • 3) Time samples (0, 5, 15, 30, 45 and 60 minutes) are removed and immediately mixed with cold acetonitrile containing internal standard (IS). Test compound incubated with microsomes without NADPH for 60 min are also included. • 4) Duplicate point for each test condition (n=2). • 5) Samples are analyzed by LC/MS/MS; disappearance of test compound is assessed base on peak area ratios of analyte/IS (no standard curve). • 6) An excel data summary, calculated intrinsic clearance and T1/2 values are provided. • 7) The following equation is used to calculate the microsome clearance: […]
The mg microsomal protein/g liver weight is 45 for 5 species. The liver weight values will use 40 g/kg, 30 g/kg, 32 g/kg, 20 g/kg and 88 g/kg for rat, monkey, dog, human and mouse, respectively. The liver clearance will be calculated using CLint(mic) with the following equation: […]

Row | Compound | solubility kinetic at 24 h [1] [µM] | microsomal CLint at 1 μM [2] [µL/min/mg]
1 | Cn1nc(C(F)(F)F)cc1C(=O)NC1(c2cc(-c3ccnc(C(F)(F)F)c3)nn2C)CCC1 [Compound 1064, 1-methyl-N-(1-(1-methyl-3-(2-(trifluoromethyl)pyridin-4-yl)-1H-pyrazol-5-yl)cyclobutyl)-3-(trifluoromethyl)-1H-pyrazole-5-carboxamide] | < 1.6 | < 9.6
2 | Cn1nc(C(F)(F)F)cc1C(=O)NC(C)(C)c1cc(-c2ccnc(C(F)(F)F)c2)nn1C [Compound 1063, 1-methyl-N-(2-(1-methyl-3-(2-(trifluoromethyl)pyridin-4-yl)-1H-pyrazol-5-yl)propan-2-yl)-3-(trifluoromethyl)-1H-pyrazole-5-carboxamide] | < 1.6 | < 9.6
